Results: patent US4028351A, “Method for the preparation of derivatives of spiro (4,5)-decane and derivatives thus obtained” (Buskine S.A., priority 1971, dated 1977)

Columns and labels:
kaolin induced oedema = experiment: Kaolin induced oedema (rat), anti-inflammatory activity; assay type: in vivo, Wistar rat
Excerpt: b) the data of anti-inflammatory activity are expressed as the volume
variation of the kaolin induced oedema in the Wistar rat;

LD50 (rat) i.p. = conditions: in vivo, ip
[1] = Heated plate test (mouse), analgesic activity; assay type: in vivo
Excerpt: a) the data of analgesic activity are expressed as the variation % of the
stimulation threshold in the mouse;

Histamine broncho-spasm = experiment: Broncho-spasm antagonist activity (Konzett and Roessler technique), histamine; assay type: in vivo, guinea pigs; conditions: Cavia porcellus, iv, guinea pig, i.v., read-out: Broncho-spasm 50% approx. inhibiting dose, Histamine
Procedure: (§1) c) the experiments on the antagonist activity against the bronochospasm
(§2) were carried out on guinea pigs, according to the technique taught by
(§3) Konzett and Roessler (Arch. Exper. Pathol. Pharm., 71, (1940), 195).

[2] = tested on: Acetylcholine broncho-spasm; experiment: Broncho-spasm antagonist activity (Konzett and Roessler technique), acetylcholine; assay type: in vivo, guinea pigs; conditions: Cavia porcellus, iv, guinea pig, i.v., read-out: Broncho-spasm 50% approx. inhibiting dose, Acetylcholine
Procedure: as §1, §2, §3

Serotonine broncho-spasm = experiment: Broncho-spasm antagonist activity (Konzett and Roessler technique), serotonine; assay type: in vivo, guinea pigs; conditions: Cavia porcellus, iv, guinea pig, i.v., read-out: Broncho-spasm 50% approx. inhibiting dose, Serotonine
Procedure: as §1, §2, §3

[3] = total dose 440 mg/kg per os (48 hours)
[4] = total dose 310 mg/kg per os (48 hours)

O=C1NCC2(CCN(CCc3ccccc3)CC2)O1
Kaolin induced oedema, volume variation % (kaolin induced oedema; total dose 190 mg/kg per os (48 hours)): 16.1%
LD50 (LD50 (rat) i.p.): 230 mg/kg
Heated plate test, % increase of threshold value ([1]; 25 mg/kg i.p.): 63.4%
ED50 (Histamine broncho-spasm): 0.5 mg/kg
ED50 [2]: 2 mg/kg
ED50 (Serotonine broncho-spasm): 0.2 mg/kg

O=C1NCC2(CCN(C(c3ccccc3)c3ccccc3)CC2)O1
Kaolin induced oedema, volume variation % (kaolin induced oedema; [3]): 4.6%
LD50 (LD50 (rat) i.p.): 346 mg/kg
Heated plate test, % increase of threshold value ([1]; 100 mg/kg i.p.): 119%
ED50 (Histamine broncho-spasm): > 0.5 mg/kg
ED50 [2]: > 0.5 mg/kg
ED50 (Serotonine broncho-spasm): > 0.5 mg/kg

O=C1NCC2(CCN(CCOc3ccccc3)CC2)O1
Kaolin induced oedema, volume variation % (kaolin induced oedema; [3]): 26.3%
LD50 (LD50 (rat) i.p.): 344 mg/kg
Heated plate test, % increase of threshold value ([1]; 100 mg/kg i.p.): 49%
ED50 (Histamine broncho-spasm): > 0.5 mg/kg
ED50 [2]: > 0.5 mg/kg
ED50 (Serotonine broncho-spasm): > 0.5 mg/kg

O=C1NCC2(CCN(CCc3ccc(F)cc3)CC2)O1
Kaolin induced oedema, volume variation % (kaolin induced oedema; total dose 70 mg/kg per os (48 hours)): 19.4%
LD50 (LD50 (rat) i.p.): 282 mg/kg
Heated plate test, % increase of threshold value ([1]; 10 mg/kg i.p.): 41.7%
ED50 (Histamine broncho-spasm): 0.2 mg/kg
ED50 [2]: 2 mg/kg
ED50 (Serotonine broncho-spasm): 0.5 mg/kg

O=C1NCC2(CCN(CCc3cccc(C(F)(F)F)c3)CC2)O1
Kaolin induced oedema, volume variation % (kaolin induced oedema; [4]): 10%
LD50 (LD50 (rat) i.p.): 344 mg/kg
Heated plate test, % increase of threshold value ([1]; 50 mg/kg i.p.): 45.6%
ED50 (Histamine broncho-spasm): 0.5 mg/kg
ED50 [2]: > 0.5 mg/kg
ED50 (Serotonine broncho-spasm): > 0.5 mg/kg

O=C1NCC2(CCN(CCc3ccc4c(c3)OCO4)CC2)O1
Kaolin induced oedema, volume variation % (kaolin induced oedema; [4]): 39.5%
LD50 (LD50 (rat) i.p.): 235 mg/kg
Heated plate test, % increase of threshold value ([1]; 40 mg/kg i.p.): 80%
ED50 (Histamine broncho-spasm): 0.2 mg/kg
ED50 [2]: > 2.5 mg/kg
ED50 (Serotonine broncho-spasm): > 2.5 mg/kg

O=C1NCC2(CCN(Cc3ccccc3)CC2)O1
Kaolin induced oedema, volume variation % (kaolin induced oedema; total dose 340 mg/kg per os (48 hours)): 9.4%
LD50 (LD50 (rat) i.p.): 319 mg/kg
Heated plate test, % increase of threshold value ([1]; 100 mg/kg i.p.): 93%
ED50 (Histamine broncho-spasm): > 0.5 mg/kg
ED50 [2]: > 0.5 mg/kg
ED50 (Serotonine broncho-spasm): > 0.5 mg/kg
